Measured values from article PMC9851200, “Multiparameter phenotypic screening for endogenous TFEB and TFE3 translocation identifies novel chemical series modulating lysosome function” (Autophagy, 2022).
Entries after “also recorded” stand apart in the source; their conditions may differ.

Tests used:
TFEB or TFE3 = test: EC50 line in the head of Table S5 (cellular activity of the analogs, assay not given); assay type: cell-based; conditions: assay not named, unit printed only in the first two cells
Method: Figure S5. Activity of quinazoline analogs. […] Compounds were screen at 24-h treatment time up to 5 µM concentration. Data for each compound is represented on single graphs with their structures shown. n=1 for all above assays, mean±s.d. (B) Representative western blot of TFEB levels following treatment of compounds followed by fractionation into cytoplasmic (C) and nuclear (N) compartments. Successful fractionation represented by enrichment of GAPDH in the cytoplasmic fraction and LMNA (lamin A/C) in the nuclear compartment. (C) The levels of nuclear/cytoplasmic TFEB were quantified and presented as a ratio. A paired one-way ANOVA with a Holm-Šídák's multiple comparisons test was performed relative to DMSO for comparison between each compound treatments (n=3).

TGFBR2 = TGFBR2 (Homo sapiens, UniProt P37173); test: KINOMEscan TGFBR2; assay type: binding; conditions: NEW KINOMEscan
TGFBR2, sequence (P37173 23-567): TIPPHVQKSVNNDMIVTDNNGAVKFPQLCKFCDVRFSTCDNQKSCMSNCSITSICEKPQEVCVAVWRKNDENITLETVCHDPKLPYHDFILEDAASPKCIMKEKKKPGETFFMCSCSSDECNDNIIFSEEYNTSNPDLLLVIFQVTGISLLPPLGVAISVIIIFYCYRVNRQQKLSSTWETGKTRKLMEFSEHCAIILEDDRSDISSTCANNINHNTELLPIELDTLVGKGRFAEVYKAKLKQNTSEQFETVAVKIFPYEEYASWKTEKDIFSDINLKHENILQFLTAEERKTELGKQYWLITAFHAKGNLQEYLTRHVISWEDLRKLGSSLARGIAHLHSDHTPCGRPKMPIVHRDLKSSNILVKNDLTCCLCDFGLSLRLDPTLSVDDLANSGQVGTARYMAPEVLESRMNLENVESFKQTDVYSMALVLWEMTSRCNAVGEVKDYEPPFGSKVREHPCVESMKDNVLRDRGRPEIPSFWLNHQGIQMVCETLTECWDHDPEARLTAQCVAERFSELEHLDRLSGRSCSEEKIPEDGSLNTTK

CDC42BPB/MRCKB = CDC42BPB/MRCKB (Homo sapiens, UniProt Q9Y5S2); assay type: binding
CDC42BPB/MRCKB, sequence (Q9Y5S2 whole entry): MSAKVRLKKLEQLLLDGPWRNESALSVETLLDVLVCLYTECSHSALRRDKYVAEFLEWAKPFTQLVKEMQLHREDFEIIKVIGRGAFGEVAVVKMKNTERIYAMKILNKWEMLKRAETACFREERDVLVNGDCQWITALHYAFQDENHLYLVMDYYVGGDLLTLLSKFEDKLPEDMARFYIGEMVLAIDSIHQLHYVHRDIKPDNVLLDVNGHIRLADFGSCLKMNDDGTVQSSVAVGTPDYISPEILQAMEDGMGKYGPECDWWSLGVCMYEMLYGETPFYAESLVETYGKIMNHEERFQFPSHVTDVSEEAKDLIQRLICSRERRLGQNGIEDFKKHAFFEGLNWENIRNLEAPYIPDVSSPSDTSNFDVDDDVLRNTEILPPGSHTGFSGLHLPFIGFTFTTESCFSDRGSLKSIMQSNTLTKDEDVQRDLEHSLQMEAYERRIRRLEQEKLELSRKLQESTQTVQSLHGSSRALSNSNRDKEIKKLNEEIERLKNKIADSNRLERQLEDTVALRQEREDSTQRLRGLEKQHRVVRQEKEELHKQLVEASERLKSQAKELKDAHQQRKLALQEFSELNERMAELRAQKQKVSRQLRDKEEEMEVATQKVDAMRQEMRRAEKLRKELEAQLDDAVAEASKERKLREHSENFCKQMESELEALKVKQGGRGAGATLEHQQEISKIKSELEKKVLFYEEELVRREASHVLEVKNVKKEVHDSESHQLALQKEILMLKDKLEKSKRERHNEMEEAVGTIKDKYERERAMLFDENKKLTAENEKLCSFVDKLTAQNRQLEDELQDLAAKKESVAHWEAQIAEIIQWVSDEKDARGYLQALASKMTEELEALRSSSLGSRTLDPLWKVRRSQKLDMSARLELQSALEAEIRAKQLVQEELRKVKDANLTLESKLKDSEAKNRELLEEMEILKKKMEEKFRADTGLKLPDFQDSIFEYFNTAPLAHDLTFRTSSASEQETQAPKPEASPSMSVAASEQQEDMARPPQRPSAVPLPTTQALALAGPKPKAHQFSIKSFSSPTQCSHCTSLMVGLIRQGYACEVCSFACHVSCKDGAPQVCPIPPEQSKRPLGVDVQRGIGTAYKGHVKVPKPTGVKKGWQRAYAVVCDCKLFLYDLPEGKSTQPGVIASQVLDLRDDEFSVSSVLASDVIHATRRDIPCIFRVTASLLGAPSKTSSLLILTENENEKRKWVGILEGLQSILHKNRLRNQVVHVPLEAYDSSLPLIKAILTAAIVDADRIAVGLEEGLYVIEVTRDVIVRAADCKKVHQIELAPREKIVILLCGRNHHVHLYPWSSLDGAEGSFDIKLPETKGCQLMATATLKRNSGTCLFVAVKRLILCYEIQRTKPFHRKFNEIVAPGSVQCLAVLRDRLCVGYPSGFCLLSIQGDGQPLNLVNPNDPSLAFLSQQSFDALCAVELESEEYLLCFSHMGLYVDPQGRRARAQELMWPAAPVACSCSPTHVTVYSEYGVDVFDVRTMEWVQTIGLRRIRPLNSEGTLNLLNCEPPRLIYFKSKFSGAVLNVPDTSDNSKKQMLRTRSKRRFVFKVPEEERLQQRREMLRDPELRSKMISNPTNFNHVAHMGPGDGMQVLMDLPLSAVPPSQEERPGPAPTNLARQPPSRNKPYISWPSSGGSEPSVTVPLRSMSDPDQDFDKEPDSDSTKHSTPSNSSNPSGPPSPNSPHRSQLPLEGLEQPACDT

CSNK1D = CSNK1D (Homo sapiens, UniProt P48730); test: KINOMEscan CSNK1D; assay type: binding; conditions: NEW KINOMEscan
CSNK1D, sequence (P48730 whole entry): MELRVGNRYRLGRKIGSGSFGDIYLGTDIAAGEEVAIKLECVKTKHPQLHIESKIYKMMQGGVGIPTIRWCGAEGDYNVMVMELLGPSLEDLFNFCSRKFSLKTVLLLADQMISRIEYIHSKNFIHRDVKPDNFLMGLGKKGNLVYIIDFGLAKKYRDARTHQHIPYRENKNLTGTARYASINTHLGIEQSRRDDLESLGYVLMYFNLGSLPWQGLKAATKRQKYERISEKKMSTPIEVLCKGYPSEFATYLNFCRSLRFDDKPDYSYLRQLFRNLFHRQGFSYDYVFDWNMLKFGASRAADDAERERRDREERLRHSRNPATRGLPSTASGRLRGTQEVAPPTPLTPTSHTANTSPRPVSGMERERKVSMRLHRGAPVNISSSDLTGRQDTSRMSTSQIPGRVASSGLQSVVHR

PIKFYVE = PIKFYVE (Homo sapiens, UniProt Q9Y2I7); test: KINOMEscan PIKFYVE; assay type: binding; conditions: kinase PIKFYVE; NEW KINOMEscan
PIKFYVE, sequence (Q9Y2I7 whole entry): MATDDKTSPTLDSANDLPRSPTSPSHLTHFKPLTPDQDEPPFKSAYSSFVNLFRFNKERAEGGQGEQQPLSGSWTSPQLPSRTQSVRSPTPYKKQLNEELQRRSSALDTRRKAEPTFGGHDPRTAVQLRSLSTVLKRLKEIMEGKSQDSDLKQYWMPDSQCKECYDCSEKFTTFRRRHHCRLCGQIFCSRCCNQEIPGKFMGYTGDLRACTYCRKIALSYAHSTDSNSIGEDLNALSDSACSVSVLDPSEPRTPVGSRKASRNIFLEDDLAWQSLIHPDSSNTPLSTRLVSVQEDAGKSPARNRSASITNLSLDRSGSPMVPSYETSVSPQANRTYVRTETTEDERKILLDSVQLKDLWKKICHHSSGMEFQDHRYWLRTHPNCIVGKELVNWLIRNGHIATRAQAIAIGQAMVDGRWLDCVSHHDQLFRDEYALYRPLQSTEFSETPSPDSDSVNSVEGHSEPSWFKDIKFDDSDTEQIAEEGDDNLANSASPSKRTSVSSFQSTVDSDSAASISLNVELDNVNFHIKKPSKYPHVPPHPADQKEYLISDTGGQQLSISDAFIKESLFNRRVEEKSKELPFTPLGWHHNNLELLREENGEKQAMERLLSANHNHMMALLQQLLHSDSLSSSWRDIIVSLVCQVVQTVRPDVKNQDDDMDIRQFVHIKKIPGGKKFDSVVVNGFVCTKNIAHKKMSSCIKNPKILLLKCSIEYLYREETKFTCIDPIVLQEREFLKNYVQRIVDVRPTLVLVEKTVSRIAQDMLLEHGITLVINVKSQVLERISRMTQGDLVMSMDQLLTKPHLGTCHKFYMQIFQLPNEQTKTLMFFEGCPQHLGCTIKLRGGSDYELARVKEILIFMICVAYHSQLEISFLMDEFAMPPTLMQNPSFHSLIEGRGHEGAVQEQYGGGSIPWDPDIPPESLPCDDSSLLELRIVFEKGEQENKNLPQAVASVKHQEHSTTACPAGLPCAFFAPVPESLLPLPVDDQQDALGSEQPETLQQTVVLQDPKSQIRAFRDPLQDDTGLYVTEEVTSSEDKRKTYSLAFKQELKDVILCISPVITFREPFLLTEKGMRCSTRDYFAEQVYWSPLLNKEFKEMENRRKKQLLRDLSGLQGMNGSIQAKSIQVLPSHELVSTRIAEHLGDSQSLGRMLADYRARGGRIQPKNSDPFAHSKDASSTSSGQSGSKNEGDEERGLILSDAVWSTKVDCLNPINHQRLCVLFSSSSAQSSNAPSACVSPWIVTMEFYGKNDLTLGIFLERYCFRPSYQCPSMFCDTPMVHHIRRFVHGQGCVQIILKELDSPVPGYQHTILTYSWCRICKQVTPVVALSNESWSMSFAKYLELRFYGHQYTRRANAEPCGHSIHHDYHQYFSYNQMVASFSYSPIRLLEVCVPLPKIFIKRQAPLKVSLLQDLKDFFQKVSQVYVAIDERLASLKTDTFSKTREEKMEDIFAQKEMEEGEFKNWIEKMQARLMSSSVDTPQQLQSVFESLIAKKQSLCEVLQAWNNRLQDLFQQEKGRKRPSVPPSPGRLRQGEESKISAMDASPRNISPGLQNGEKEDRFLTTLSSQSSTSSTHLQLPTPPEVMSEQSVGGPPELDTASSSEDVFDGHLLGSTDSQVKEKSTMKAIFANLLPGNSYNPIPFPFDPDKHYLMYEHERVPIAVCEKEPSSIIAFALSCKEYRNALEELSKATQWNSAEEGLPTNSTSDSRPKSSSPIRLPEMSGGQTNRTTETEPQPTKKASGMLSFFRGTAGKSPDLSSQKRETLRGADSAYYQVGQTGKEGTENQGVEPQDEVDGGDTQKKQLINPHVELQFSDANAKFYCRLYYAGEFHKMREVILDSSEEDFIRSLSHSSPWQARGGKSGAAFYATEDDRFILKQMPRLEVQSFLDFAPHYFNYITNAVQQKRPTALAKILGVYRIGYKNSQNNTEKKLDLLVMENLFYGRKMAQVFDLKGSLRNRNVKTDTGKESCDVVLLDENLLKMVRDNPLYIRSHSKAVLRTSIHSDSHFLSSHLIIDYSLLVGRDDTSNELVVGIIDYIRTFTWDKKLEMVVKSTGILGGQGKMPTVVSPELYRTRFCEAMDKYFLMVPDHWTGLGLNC

PRKD3 [1] = target: T1, PRKD3 (Homo sapiens, UniProt O94806); test: KINOMEscan PRKD3; assay type: binding; conditions: kinase PRKD3; NEW KINOMEscan
T1 sequence (O94806 1-890): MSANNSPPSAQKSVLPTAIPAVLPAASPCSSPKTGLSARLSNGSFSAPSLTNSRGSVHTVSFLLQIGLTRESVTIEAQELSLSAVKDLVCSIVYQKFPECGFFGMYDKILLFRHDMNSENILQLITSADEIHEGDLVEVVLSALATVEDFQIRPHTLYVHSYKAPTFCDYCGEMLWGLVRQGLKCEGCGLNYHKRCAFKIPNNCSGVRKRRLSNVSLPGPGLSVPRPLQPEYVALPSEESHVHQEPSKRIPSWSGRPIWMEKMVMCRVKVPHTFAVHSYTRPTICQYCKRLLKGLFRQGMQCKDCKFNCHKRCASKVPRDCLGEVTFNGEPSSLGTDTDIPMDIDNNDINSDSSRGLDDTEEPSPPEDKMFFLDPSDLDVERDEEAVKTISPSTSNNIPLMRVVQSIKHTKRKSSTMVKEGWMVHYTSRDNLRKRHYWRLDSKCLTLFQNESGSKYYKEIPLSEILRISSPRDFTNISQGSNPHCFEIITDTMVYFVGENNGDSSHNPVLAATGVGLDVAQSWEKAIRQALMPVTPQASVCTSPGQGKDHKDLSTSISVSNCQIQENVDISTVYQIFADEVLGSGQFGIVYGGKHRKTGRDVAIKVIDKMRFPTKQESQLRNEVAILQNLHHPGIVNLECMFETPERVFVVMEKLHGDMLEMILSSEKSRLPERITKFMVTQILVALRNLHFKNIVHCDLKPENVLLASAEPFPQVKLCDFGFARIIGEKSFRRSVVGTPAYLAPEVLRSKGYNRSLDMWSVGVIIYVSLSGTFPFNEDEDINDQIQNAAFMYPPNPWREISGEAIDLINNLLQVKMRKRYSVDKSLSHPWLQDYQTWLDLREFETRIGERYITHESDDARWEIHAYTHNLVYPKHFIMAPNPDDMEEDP

PKNB(M.tuberculosis) = PKNB(M.tuberculosis) (Mycobacterium tuberculosis, UniProt P9WI81); assay type: binding
endogenous TFEB = test: TFEB nuclear translocation, immunocytochemistry high-content imaging; assay type: cell-based; conditions: for TFEB translocation (in words): SH-SY5Y
SH-SY5Y cells [2] = tested on: SH-SY5Y cells
Source text: The PKIS2 Library was supplied by The Structural Genomics Consortium at the University of North Carolina at Chapel Hill.

SH-SY5Y cells [3] = test: Nuclear count from microscopy images (cellular growth and toxicity)
BMPR1B = BMPR1B (Homo sapiens, UniProt O00238); conditions: cited from earlier work
MAPK9/JNK2 = MAPK9/JNK2 (Homo sapiens, UniProt P45984); conditions: cited from earlier work
ALK5/TGFBR1 = conditions: cited from earlier work
JAK1(JH2) = target: T2, JAK1(JH2) (Homo sapiens, UniProt P23458); conditions: cited from earlier work
T2 construct: JAK1(JH2)
T2 sequence (P23458 583-855 limits assumed): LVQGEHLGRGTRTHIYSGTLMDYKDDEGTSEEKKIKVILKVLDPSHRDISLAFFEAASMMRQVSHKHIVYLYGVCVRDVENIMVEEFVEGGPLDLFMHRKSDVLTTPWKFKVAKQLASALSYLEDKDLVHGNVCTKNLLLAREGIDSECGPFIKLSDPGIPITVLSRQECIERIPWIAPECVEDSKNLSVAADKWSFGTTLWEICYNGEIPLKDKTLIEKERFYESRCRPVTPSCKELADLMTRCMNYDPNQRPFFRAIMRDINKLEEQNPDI

MAPK10/JNK3 = MAPK10/JNK3 (Homo sapiens, UniProt P53779); conditions: cited from earlier work
STK10/LOK = STK10/LOK (Homo sapiens, UniProt O94804); conditions: cited from earlier work
TGFBR1 = target: T3, TGFBR1 (Homo sapiens, UniProt P36897); conditions: cited from earlier work
T3 sequence (P36897 34-503): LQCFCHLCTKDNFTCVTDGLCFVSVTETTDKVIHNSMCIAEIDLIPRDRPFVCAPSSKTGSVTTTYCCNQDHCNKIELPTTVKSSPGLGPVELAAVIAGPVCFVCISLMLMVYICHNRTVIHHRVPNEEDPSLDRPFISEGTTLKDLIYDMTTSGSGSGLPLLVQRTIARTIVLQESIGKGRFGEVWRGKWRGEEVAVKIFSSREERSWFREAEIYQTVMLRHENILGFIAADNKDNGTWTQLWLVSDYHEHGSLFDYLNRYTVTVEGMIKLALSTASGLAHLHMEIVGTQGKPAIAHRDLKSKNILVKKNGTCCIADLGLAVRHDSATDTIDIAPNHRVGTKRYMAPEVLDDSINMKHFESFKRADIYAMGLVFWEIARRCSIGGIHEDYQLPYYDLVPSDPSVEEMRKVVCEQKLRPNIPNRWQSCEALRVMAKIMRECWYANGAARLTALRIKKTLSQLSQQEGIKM

MINK1/MINK = MINK1/MINK (Homo sapiens, UniProt Q8N4C8); conditions: cited from earlier work
PRKD3 [4] = target: T1, PRKD3; conditions: cited from earlier work

Row | Structure (SMILES) | EC50 (TFEB or TFE3) | KINOMEscan TGFBR2 (TGFBR2) | KINOMEscan CDC42BPB/MRCKB (CDC42BPB/MRCKB) | KINOMEscan CSNK1D (CSNK1D) | KINOMEscan PIKFYVE (PIKFYVE) | KINOMEscan PRKD3 (PRKD3 [1]) | KINOMEscan PKNB(M.tuberculosis) (PKNB(M.tuberculosis)) | TFEB translocation (in words) (endogenous TFEB; 24 h treatment) | other results
1 | Cc1cccc(-c2nc(N(C)c3ccc4ncsc4c3)c3ccccc3n2)n1 [NK-161] | 1100 nM | 0 | 5 | 11 | 16 | 74 | 9 | – | –
2 | Cc1cccc(-c2nc(Nc3ccc4ncsc4c3)c3ccccc3n2)n1 [NK140] | 650 nM | – | – | – | – | – | – | modest TFEB and TFE3 translocation | TFEB translocation (in words) (endogenous TFEB; 48 h treatment): induced; also recorded: elevated TFEB and TFE3 translocation; DQ Red BSA fluorescence intensity (in words) (SH-SY5Y cells [2]; SH-SY5Y, 24 h treatment): no increases in DQ Red BSA intensity; DQ Red BSA intensity (in words) (SH-SY5Y cells [2]; SH-SY5Y, 48 h treatment): additional increase in DQ Red BSA intensity; Nuclear count (in words) (SH-SY5Y cells [3]; SH-SY5Y, 48 h treatment): small reduction in nuclear count from 0.75 µM
3 | Cc1cccc(-c2nc(C)cc(Nc3ccncc3)n2)n1 [GSK257997] | – | – | – | – | – | – | – | did not show TFEB and TFE3 activation | TFEB % (endogenous TFEB; PKIS2 primary screening): 2.98%; KINOMEscan binding BMPR1B (BMPR1B): 0%; KINOMEscan binding MAPK9/JNK2 (MAPK9/JNK2): 43%; TGFBR1 binding (ALK5/TGFBR1): 0.025 µM; KINOMEscan binding JAK1(JH2) (JAK1(JH2)): 0%; DQ Intensity (SH-SY5Y cells [2]; PKIS2 primary screening, DQ Red BSA intensity): 78.64; DQ Spot (SH-SY5Y cells [2]; PKIS2 primary screening, DQ Red BSA spot count): 86.70; Nuclear Count (SH-SY5Y cells [3]; PKIS2 primary screening): 128.02; KINOMEscan binding MAPK10/JNK3 (MAPK10/JNK3): 32%; KINOMEscan binding STK10/LOK (STK10/LOK): 0%; KINOMEscan binding TGFBR1 (TGFBR1): 100%; KINOMEscan binding MINK1/MINK (MINK1/MINK): 6%; KINOMEscan binding PRKD3 (PRKD3 [4]): 85%
4 | Cc1cccc(-c2nc(Nc3ccc4nn(C)cc4c3)c3ccccc3n2)n1 [NK167] | 1000 nM | 0 | 0 | 4 | 0 | 39 | 12 | – | –
